The test system of one series is Staphylococcus aureus. In words: Antibacterial activity against Staphylococcus aureus. The format is functional. Conditions: Staphylococcus aureus; read-out: MIC.
Series [1] in a line: Selectivity ratio of CC50 for human A549 cells to MIC for Staphylococcus aureus. Type of series: toxicity.
The next series concerns A549. Description: Cytotoxicity against human A549 cells. The format is toxicity, cell-based. Particulars: a549.

Each structure is given as a SMILES string. Converted amounts (≈) assume the structure as drawn.

The term MIC denotes the least concentration at which growth counts as inhibited. In general, CC50 refers to the concentration that lowers cell viability or growth by half. Low readings indicate greater toxicity to the cells, high ones lower toxicity to the cells. As to `Cc1cc(Cl)cc2sc(N(CCCn3ccnc3)C(=O)C3CCCC3)nc12`, the MIC with Staphylococcus aureus is 1.7 µM (≈ 0.685 µg/mL). Besides, the selectivity ratio in series [1] worked out at 34. Also, in the series on A549, it took 59.7 µM to reach half-maximal cytotoxicity (CC50).

Source of the values: ChEMBL document CHEMBL5257105, “Identification and structure-activity relationships for a series of N, N-disubstituted 2-aminobenzothiazoles as potent inhibitors of S. aureus” (Bioorg Med Chem Lett, 2023).
